Laboratory results reported in patent US20090062122A1, “Cotton Growth Regulator” (FMC Corporation, priority 2006, published 2009).

What was measured:
Assay type in all cases: in vivo
cotton, variety D&PL 555 [1] = experiment: % desiccation of cotton leaves, field trial
Protocol: (§1) The trial was performed on cotton, variety D&PL 555. The formulated test compounds were diluted to the appropriate concentrations with water to which a crop oil concentrate (1% to 2% v/v) or a non-ionic surfactant (0.25% v/v) was added. The application of the test composition as a cotton plant growth regulator was performed using pressurized, over-the-top spray equipment consisting of a research scale boom sprayer. Deposit of the test composition was primarily to the top of the cotton plants, minimizing spray deposition to lower branches, leaves and fruit. The finished spray volume was 10 gallons per acre, with sprayer nozzle design, orientation and nozzle pressures chosen to prevent spray drift. Applications were made at first sign of cotton boll opening and at 15%, 20% and 40% open bolls.
(§2) The experimental design used randomized plots with 1 to 4 treatment rates of test composition and from 1 to 10 replications depending on the test (sees tables below). The size of each experimental plot was about 15 m^2. Testing was performed in Texas, North Carolina, Mississippi and Georgia.
(§3) Percent desiccation, percent defoliation, percent terminal control and percent open bolls were evaluated at 7 and 14 days after application (DAA) of the test composition. Inspection of cotton plants for insect control of armyworm larvae was performed at 2 DAA and insect damage to bolls was performed at the time of harvest
Desiccation refers to leaves or portions of leaves dried to debris following tissue death. […] An evaluation of the condition of leaves in the untreated check plots were observed. Then the test plots were individually evaluated. The percent of all leaves completely or partially desiccated by the test application were recorded, based upon live leaves and leaf debris within the test plot relative to foliage present in the untreated plot.
(§4) The results, shown as the mean of the indicated number of replications, were compared with results observed in the same trials with an untreated control.

Bollworm (Heliothis zea) = experiment: % bolls damaged by bollworm at harvest; conditions: 15% open boll application, 0.006 lb ai/a, 1 replicate
Protocol: as §1, with “bolls. […]” for “bolls.”
(§5) Percent desiccation, percent defoliation, percent terminal control and percent open bolls were evaluated at 7 and 14 days after application (DAA) of the test composition. […]
(§6) Bollworm (Heliothis zea) and stinkbug (Euschistus servus) insect control was measured by examining the bolls of 100 cotton plants, 50 cotton plants in two representative locations with in the treatment plot, for injury caused by either bollworms or by stinkbugs. The percent damage was calculated by dividing the number of damaged bolls by the total number of bolls on the plants multiplied by 100. […]

cotton, variety D&PL 555 [2] = experiment: Cotton yield; conditions: 5 replicates
Protocol: as §1, §2, §4

cotton, variety D&PL 555 [3] = experiment: % defoliation of cotton plants, field trial
Protocol: as §1, §2, §3
Defoliation refers to removal of leaves. Percent defoliation rating approximates the proportion of leaves of all sizes shed per 100 leaves present prior to application of the cotton growth regulator compound. An evaluation of the foliage in the untreated check plots was first undertaken. Then the test plots were individually evaluated. The percent of leaves dropped by the plants in the treated plot was determined using observations within the plot and comparisons to foliage in the untreated plot.
as §4

[4] = tested on: Brown Stinkbug (Euschistus servus); experiment: % bolls damaged by brown stinkbug at harvest; conditions: 15% open boll application, 0.006 lb ai/a, 1 replicate
Protocol: as §1, with “bolls. […]” for “bolls.”
as §5, §6

[5] = 40% open boll application, 0.004 lb ai/a, 7 DAA, 1 replicate
[6] = 40% open boll application, 0.006 lb ai/a, 7 DAA, 1 replicate
[7] = 40% open boll application, 0.008 lb ai/a, 7 DAA, 1 replicate
[8] = first open boll application, 0.002 lb ai/a, 7 DAA, 4 replicates
[9] = first open boll application, 0.002 lb ai/a, 14 DAA, 4 replicates
[10] = first open boll application, 0.004 lb ai/a, 7 DAA, 4 replicates
[11] = first open boll application, 0.004 lb ai/a, 14 DAA, 4 replicates
[12] = first open boll application, 0.006 lb ai/a, 7 DAA, 4 replicates
[13] = first open boll application, 0.006 lb ai/a, 14 DAA, 4 replicates
[14] = first open boll application, 0.008 lb ai/a, 7 DAA, 4 replicates
[15] = first open boll application, 0.008 lb ai/a, 14 DAA, 4 replicates

In the case of `CCOC(=O)C(Cl)Cc1cc(-n2nc(C)n(C(F)F)c2=O)c(F)cc1Cl` (centres unmarked) [carfentrazone-ethyl, ethyl 2-chloro-3-[2-chloro-5-(4-difluoromethyl-3-methyl-5-oxo-4,5-dihydro-[1,2,4]-triazol-1-yl)-4-fluorophenyl]propionate], the “% Desiccation” value (cotton, variety D&PL 555 [1]; [5]) is reported as 6%, the “% Desiccation” value (cotton, variety D&PL 555 [1]; [6]) is reported as 5% and the “% Desiccation” value (cotton, variety D&PL 555 [1]; [7]) is reported as 9%. The “% Desiccation” value (cotton, variety D&PL 555 [1]; [8]) was 15%, the “% Desiccation” value (cotton, variety D&PL 555 [1]; [9]) was 18% and the “% Desiccation” value (cotton, variety D&PL 555 [1]; [10]) was 25%. The “% Desiccation” value (cotton, variety D&PL 555 [1]; [11]) was 25%, the “% Desiccation” value (cotton, variety D&PL 555 [1]; [12]) was 28% and the “% Desiccation” value (cotton, variety D&PL 555 [1]; [13]) was 28%. The “% Desiccation” value (cotton, variety D&PL 555 [1]; [14]) was 33%, the “% Desiccation” value (cotton, variety D&PL 555 [1]; [15]) was 32% and the “% Bolls Damaged by Bollworm (Heliothis zea)” value (Bollworm (Heliothis zea)) was 1.75%. For the same compound, the Cotton yield (cotton, variety D&PL 555 [2]; 20% open bolls application, 0.002 lb ai/a) was 1168 Lb lint/Acre, the Cotton yield (cotton, variety D&PL 555 [2]; 20% open bolls application, 0.004 lb ai/a) was 1128 Lb lint/Acre and the Cotton yield (cotton, variety D&PL 555 [2]; 20% open bolls application, 0.006 lb ai/a) was 1107 Lb lint/Acre. For the same compound, the Cotton yield (cotton, variety D&PL 555 [2]; 20% open bolls application, 0.008 lb ai/a) was 1178 Lb lint/Acre, the Cotton yield (cotton, variety D&PL 555 [2]; first open boll application, 0.002 lb ai/a) was 1172 Lb lint/Acre and the Cotton yield (cotton, variety D&PL 555 [2]; first open boll application, 0.004 lb ai/a) was 1004 Lb lint/Acre. The Cotton yield (cotton, variety D&PL 555 [2]; first open boll application, 0.006 lb ai/a) was 1152 Lb lint/Acre, the Cotton yield (cotton, variety D&PL 555 [2]; first open boll application, 0.008 lb ai/a) was 1167 Lb lint/Acre and the “% Defoliation” value (cotton, variety D&PL 555 [3]; 15% open boll application, 0.004 lb ai/a, 14 DAA, 10 replicates) was 28%. For the same compound, the “% Defoliation” value (cotton, variety D&PL 555 [3]; 15% open boll application, 0.006 lb ai/a, 14 DAA, 10 replicates) was 33%, the “% Defoliation” value (cotton, variety D&PL 555 [3]; 15% open boll application, 0.008 lb ai/a, 14 DAA, 10 replicates) was 39% and the “% Defoliation” value (cotton, variety D&PL 555 [3]; 15% open boll application, 0.01 lb ai/a, 14 DAA, 10 replicates) was 41%. For the same compound, the “% Defoliation” value (cotton, variety D&PL 555 [3]; 20% open boll application, 0.002 lb ai/a, 7 DAA, 3 replicates) was 9%, the “% Defoliation” value (cotton, variety D&PL 555 [3]; 20% open boll application, 0.002 lb ai/a, 14 DAA, 3 replicates) was 17% and the “% Defoliation” value (cotton, variety D&PL 555 [3]; 20% open boll application, 0.004 lb ai/a, 7 DAA, 3 replicates) was 25%. For the same compound, the “% Defoliation” value (cotton, variety D&PL 555 [3]; 20% open boll application, 0.004 lb ai/a, 14 DAA, 3 replicates) was 38%, the “% Defoliation” value (cotton, variety D&PL 555 [3]; 20% open boll application, 0.006 lb ai/a, 7 DAA, 3 replicates) was 22% and the “% Defoliation” value (cotton, variety D&PL 555 [3]; 20% open boll application, 0.006 lb ai/a, 14 DAA, 3 replicates) was 34%. The “% Defoliation” value (cotton, variety D&PL 555 [3]; 20% open boll application, 0.008 lb ai/a, 7 DAA, 3 replicates) was 24%, the “% Defoliation” value (cotton, variety D&PL 555 [3]; 20% open boll application, 0.008 lb ai/a, 14 DAA, 3 replicates) was 36% and the “% Defoliation” value (cotton, variety D&PL 555 [3]; [5]) was 61%. The “% Defoliation” value (cotton, variety D&PL 555 [3]; [6]) was 58%, the “% Defoliation” value (cotton, variety D&PL 555 [3]; [7]) was 67% and the “% Defoliation” value (cotton, variety D&PL 555 [3]; [8]) was 6%. The “% Defoliation” value (cotton, variety D&PL 555 [3]; [9]) was 15%, the “% Defoliation” value (cotton, variety D&PL 555 [3]; [10]) was 12% and the “% Defoliation” value (cotton, variety D&PL 555 [3]; [11]) was 25%. The “% Defoliation” value (cotton, variety D&PL 555 [3]; [12]) was 13%, the “% Defoliation” value (cotton, variety D&PL 555 [3]; [13]) was 28% and the “% Defoliation” value (cotton, variety D&PL 555 [3]; [14]) was 12%. The “% Defoliation” value (cotton, variety D&PL 555 [3]; [15]) was 23% and the “% Bolls Damaged by Brown Stinkbug (Euschistus servus)” value [4] was 2.25%.
